Data on 37 molecules can be found in US12202844B2, “MAP4K1 inhibitors” (Blueprint Medicines Corporation, priority 2021, dated 2025).

This assay deals with T1, MAP4K1 (HPK1) (Homo sapiens, UniProt Q92918).
T1 construct: purchased Invitrogen
Put plainly: Inhibition of MAP4K1 biochemical enzymatic activity (EZReader 2 electrophoretic mobility shift). The settings on record: HPK1 (Invitrogen), S6K2tide 1.5 μM, 120 min; ATP 26 μM or 1000 μM (not given). The text has this: MAP4K1 (HPK1) and relevant off-target enzymatic activity was monitored using the Perkin Elmer electrophoretic mobility shift technology platform—the EZReader 2. […] Within the linear, steady-state phase of the kinase enzymatic reaction, the mixed pool of phosphorylated (product) and non-phosphorylated (substrate) peptides was passed through the microfluidic system of the PerkinElmer EZ Reader 2, under an applied electric potential difference. The presence of the phosphate group on the product peptide provided a difference in mass and charge between that of the substrate peptide, resulting in a separation of the substrate and product pools in the sample (Perrin et al. 2010). As the product and substrate peptide mixture passes the lasers within the instrument, these pools are detected (λex=488 nm, λem=568 nm) and resolved as separate peaks. The ratio between these peaks reflects the activity of the compound at that concentration, in that well, under those conditions.
Inhibitors were dissolved in 100% DMSO at a stock concentration of 10 mM. A 100×, 10-point, 4-fold serial dilution of each inhibitor was created in 100% DMSO either manually or on a Hamilton STAR liquid handler, starting at a relevant concentration, usually 1 mM. A volume of 0.130 μL of each concentration was transferred to the relevant wells of a 384-well plate (Greiner 781 201) in duplicate using a TTPLabtech Mosquito nano-litre dispenser. Using a Multidrop Combi, the remaining constituents of the kinase reaction were added to the 130 nL of dosed compound as follows (see table below for final reaction details):
Enzyme activity assays at the ^APPKM for ATP or 1 mM ATP: In each well of a 384-well plate, 0.1-15 nM of untreated enzyme was incubated in a total of 13 μL of buffer (100 mM HEPES pH 7.5, 0.015% Brij 35, 10 mM MgCl2, 1 mM DTT) with 1.5 μM fluorescent peptid and 20-1000 μM ATP, at 25° C., for 60-180 minutes in the presence or absence of a dosed concentration series of compound (1% DMSO final concentration). The kinase reactions were stopped by the addition of 70 μl of Stop buffer (100 mM HEPES pH 7.5, 0.015% Brij 35, 35 mM EDTA and 0.2% of Coating Reagent 3 (Caliper Lifesciences)). The plates were read on a Caliper EZReader 2 as described above.

T1 sequence (Q92918 whole entry): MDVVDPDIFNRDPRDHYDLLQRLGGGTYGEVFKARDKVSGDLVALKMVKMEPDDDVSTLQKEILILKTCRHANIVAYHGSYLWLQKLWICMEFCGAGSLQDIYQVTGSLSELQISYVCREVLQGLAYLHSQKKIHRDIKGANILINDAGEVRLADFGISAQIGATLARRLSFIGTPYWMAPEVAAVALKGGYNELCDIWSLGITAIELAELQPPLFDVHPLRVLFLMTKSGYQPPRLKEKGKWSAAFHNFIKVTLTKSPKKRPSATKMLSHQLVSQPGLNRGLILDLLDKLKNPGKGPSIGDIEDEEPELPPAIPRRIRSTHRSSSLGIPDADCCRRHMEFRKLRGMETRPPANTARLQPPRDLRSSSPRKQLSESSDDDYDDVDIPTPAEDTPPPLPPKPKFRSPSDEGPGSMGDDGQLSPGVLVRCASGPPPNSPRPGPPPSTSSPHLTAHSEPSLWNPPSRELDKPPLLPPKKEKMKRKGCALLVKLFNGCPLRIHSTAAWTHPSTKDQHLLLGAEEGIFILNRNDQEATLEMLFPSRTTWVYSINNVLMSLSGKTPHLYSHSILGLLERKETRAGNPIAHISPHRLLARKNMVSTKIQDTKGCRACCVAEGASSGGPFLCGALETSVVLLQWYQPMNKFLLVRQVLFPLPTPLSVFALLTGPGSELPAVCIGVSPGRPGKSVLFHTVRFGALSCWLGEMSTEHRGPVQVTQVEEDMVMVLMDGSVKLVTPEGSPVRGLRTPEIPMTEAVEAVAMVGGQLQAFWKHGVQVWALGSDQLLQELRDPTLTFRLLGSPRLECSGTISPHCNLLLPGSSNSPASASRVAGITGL

Broadly, the IC50 is the point on the concentration scale where inhibition reaches its midpoint. Regarding `C[C@@H]1COC(=O)c2ccc(Nc3cc4c(C(C)(C)N)cnc(O[C@H]5C[C@@H](S(C)(=O)=O)C5)c4cn3)nc21` (single isomer, unassigned) [Compound 5], the IC50 worked out at 1.77 nM.

With `CC[C@@](C)(N)c1cnc(O[C@H]2C[C@@H](S(C)(=O)=O)C2)c2cnc(Nc3ccc4c(n3)[C@H](C)COC4=O)cc12` (single isomer, unassigned) [Compound 8], the IC50 came out at 0.31 nM.

In the case of `CC[C@@](C)(N)c1cnc(O[C@H]2C[C@@H](S(C)(=O)=O)C2)c2cnc(Nc3ccc4c(n3)[C@H](C)COC4=O)cc12` (single isomer, unassigned) [Compound 9], the IC50 came to 0.92 nM.

On to `C[C@@H]1OC(=O)c2ccc(Nc3cc4c(C(C)(C)N)cnc(O[C@@H](C)CCS(C)(=O)=O)c4cn3)nc2[C@H]1C` (single isomer, unassigned) [Compound 19], for which the IC50 worked out at 0.9 nM.

With `CC[C@@](C)(N)c1cnc(OCCCS(C)(=O)=O)c2cnc(Nc3ccc4c(n3)[C@H](C)[C@H](C)OC4=O)cc12` (single isomer, unassigned) [Compound 21], the IC50 was 0.18 nM.

For `C[C@H]1OC(=O)c2ccc(Nc3cc4c(C(C)(C)N)cnc(O[C@H]5C[C@@H](S(C)(=O)=O)C5)c4cn3)nc2C12CC2` (single isomer, unassigned) [Compound 24], the IC50 is 0.15 nM.

Turning to `C[C@@H]1COC(=O)c2ccc(Nc3cc4c(C(C)(C)N)cnc(O[C@H]5C[C@@H](S(=O)(=O)C6CC6)C5)c4cn3)nc21` (single isomer, unassigned) [Compound 25], the IC50 came out at 1.53 nM.

`C[C@@H]1[C@@H](Oc2ncc(C(C)(C)N)c3cc(Nc4ccc5c(n4)[C@@H](C)[C@H](C)OC5=O)ncc23)C[C@H]1S(C)(=O)=O` (single isomer, unassigned) [Compound 30]: the IC50 turned out to be 0.79 nM.

For the molecule `C[C@@H]1[C@@H](Oc2ncc(C(C)(C)N)c3cc(Nc4ccc5c(n4)[C@@H](C)[C@H](C)OC5=O)ncc23)C[C@H]1S(C)(=O)=O` (single isomer, unassigned) [Compound 31], the IC50 turned out to be 0.2 nM.

With `C[C@@H]1OC(=O)c2ccc(Nc3cc4c(C(C)(C)N)cnc(O[C@@H]5CC[C@@H](S(C)(=O)=O)C5)c4cn3)nc2[C@H]1C` (single isomer, unassigned) [Compound 34], the IC50 was determined as 0.56 nM.

As for `C[C@@H]1OC(=O)c2ccc(Nc3cc4c(C(C)(C)N)cnc(O[C@@H]5CC[C@@H](S(C)(=O)=O)C5)c4cn3)nc2[C@H]1C` (single isomer, unassigned) [Compound 35], the concentration for half-maximal inhibition (IC50) stood at 0.48 nM.

As to `C[C@@H]1c2nc(Nc3cc4c(C(C)(C)N)cnc(OC[C@H]5CCS(=O)(=O)C5)c4cn3)ccc2C(=O)OC1(C)C` (single isomer, unassigned) [Compound 36], the IC50 is 0.54 nM.

Take `C[C@@H]1c2nc(Nc3cc4c(C(C)(C)N)cnc(OC[C@H]5CCS(=O)(=O)C5)c4cn3)ccc2C(=O)OC1(C)C` (single isomer, unassigned) [Compound 37]: the half-maximal inhibitory concentration (IC50) turned out to be 0.44 nM.

For `C[C@@H]1OC(=O)c2ccc(Nc3cc4c(C(C)(C)N)cnc(O[C@@H]5CC[C@H](S(C)(=O)=O)C5)c4cn3)nc2[C@H]1C` (single isomer, unassigned) [Compound 40], the IC50 was determined as 0.86 nM.

`C[C@@H]1OC(=O)c2ccc(Nc3cc4c(C(C)(C)N)cnc(O[C@@H]5CC[C@H](S(C)(=O)=O)C5)c4cn3)nc2[C@H]1C` (single isomer, unassigned) [Compound 41]: the IC50 came to 0.68 nM.

As for `CC[C@@](C)(N)c1cnc(OCCCS(C)(=O)=O)c2cnc(Nc3ccc4c(n3)C3(CC3)[C@H](C)OC4=O)cc12` (single isomer, unassigned) [Compound 43], the IC50 was found to be 0.12 nM.

For `C[C@H](CCS(C)(=O)=O)Oc1ccc(C(C)(C)N)c2cc(Nc3ccc4c(n3)[C@@H](C)C(C)(C)OC4=O)ncc12` (single isomer, unassigned) [Compound 45], the IC50 came to 0.2 nM.

As to `C[C@H](CCS(C)(=O)=O)Oc1ccc(C(C)(C)N)c2cc(Nc3ccc4c(n3)[C@@H](C)C(C)(C)OC4=O)ncc12` (single isomer, unassigned) [Compound 46], the IC50 amounted to 0.71 nM.

On to `C[C@H](CCS(C)(=O)=O)Oc1ncc(C(C)(C)N)c2cc(Nc3ccc4c(n3)[C@@H](C)C(C)(C)OC4=O)ncc12` (single isomer, unassigned) [Compound 54], for which the IC50 was determined as 0.82 nM.

Regarding `CC[C@@](C)(N)c1cnc(OCCCS(C)(=O)=O)c2cnc(Nc3ccc4c(n3)C(C)(C)[C@H](C)OC4=O)cc12` (single isomer, unassigned) [Compound 56], the IC50 was 0.21 nM.

Take `CC[C@@](C)(N)c1cnc(O[C@H]2C[C@@H](S(C)(=O)=O)C2)c2cnc(Nc3ccc4c(n3)C3(CC3)[C@@H](C)OC4=O)cc12` (single isomer, unassigned) [Compound 58]: the IC50 was 0.1 nM.

For `C[C@H]1[C@H](Oc2ncc(C(C)(C)N)c3cc(Nc4ccc5c(n4)[C@@H](C)C(C)(C)OC5=O)ncc23)C[C@@H]1S(C)(=O)=O` (single isomer, unassigned) [Compound 68], the IC50 was 0.51 nM.

Turning to `C[C@@H]1[C@H](S(C)(=O)=O)C[C@H]1Oc1ncc(C(C)(C)N)c2cc(Nc3ccc4c(n3)[C@@H](C)C(C)(C)OC4=O)ncc12` (single isomer, unassigned) [Compound 70], the IC50 amounted to 0.23 nM.

On to `C[C@@H]1[C@H](S(C)(=O)=O)C[C@H]1Oc1ncc(C(C)(C)N)c2cc(Nc3ccc4c(n3)[C@@H](C)C(C)(C)OC4=O)ncc12` (single isomer, unassigned) [Compound 71], for which the IC50 was determined as 0.28 nM.

As for `CC[C@@H](CCS(C)(=O)=O)Oc1ncc([C@](C)(N)CC)c2cc(Nc3ccc4c(n3)[C@@H](C)[C@H](C)OC4=O)ncc12` (single isomer, unassigned) [Compound 83], the IC50 was found to be 0.92 nM.

On to `CC[C@@H](CCS(C)(=O)=O)Oc1ncc([C@](C)(N)CC)c2cc(Nc3ccc4c(n3)[C@@H](C)[C@H](C)OC4=O)ncc12` (single isomer, unassigned) [Compound 84], for which the IC50 was 0.74 nM.

For the molecule `CC[C@@](C)(N)c1cnc(O[C@H](C)CCS(C)(=O)=O)c2cnc(Nc3ccc4c(n3)C(C)(C)[C@H](C)OC4=O)cc12` (single isomer, unassigned) [Compound 96], the IC50 amounted to 0.77 nM.

Turning to `CC[C@@](C)(N)c1cnc(O[C@@H](C)CCS(C)(=O)=O)c2cnc(Nc3ccc4c(n3)C(C)(C)[C@H](C)OC4=O)cc12` (single isomer, unassigned) [Compound 97], the IC50 was found to be 2.11 nM.

As for `CCS(=O)(=O)[C@H]1C[C@@H](Oc2ncc([C@H](N)C3CC3)c3cc(Nc4ccc5c(n4)[C@@H](C)C(C)(C)OC5=O)ncc23)C1` (single isomer, unassigned) [Compound 101], the IC50 came out at 0.48 nM.

With `CC[C@@](C)(N)c1cnc(O[C@@H](C)CCS(=O)(=O)C2CC2)c2cnc(Nc3ccc4c(n3)[C@@H](C)[C@H](C)OC4=O)cc12` (single isomer, unassigned) [Compound 106], the IC50 was found to be 0.22 nM.

On to `CC[C@@](C)(N)c1cnc(O[C@@H](C)CCS(=O)(=O)C2CC2)c2cnc(Nc3ccc4c(n3)[C@@H](C)[C@H](C)OC4=O)cc12` (single isomer, unassigned) [Compound 107], for which the IC50 was found to be 0.26 nM.

Turning to `C[C@H](C[C@@H](C)S(C)(=O)=O)Oc1ncc([C@@](C)(N)C2CC2)c2cc(Nc3ccc4c(n3)CC(C)(C)OC4=O)ncc12` (single isomer, unassigned) [Compound 108], the IC50 was found to be 0.22 nM.

`C[C@H](C[C@@H](C)S(C)(=O)=O)Oc1ncc([C@@](C)(N)C2CC2)c2cc(Nc3ccc4c(n3)[C@@H](C)[C@H](C)OC4=O)ncc12` (single isomer, unassigned) [Compound 109]: the IC50 is 0.15 nM.

Regarding `CCS(=O)(=O)C[C@H]1C[C@H](Oc2ncc(C(C)(C)N)c3cc(Nc4ccc5c(n4)[C@@H](C)C(C)(C)OC5=O)ncc23)C1` (single isomer, unassigned) [Compound 111], the IC50 is 0.12 nM.

For the molecule `CCC[C@@](C)(N)c1cnc(O[C@H](C)C[C@@H](C)S(C)(=O)=O)c2cnc(Nc3ccc4c(n3)CC(C)(C)OC4=O)cc12` (single isomer, unassigned) [Compound 124], the IC50 was 0.26 nM.

In the case of `CCC[C@@](C)(N)c1cnc(O[C@H](C)C[C@@H](C)S(C)(=O)=O)c2cnc(Nc3ccc4c(n3)[C@@H](C)[C@H](C)OC4=O)cc12` (single isomer, unassigned) [Compound 125], the IC50 amounted to 0.18 nM.

For the molecule `CC[C@@](C)(N)c1cnc(O[C@H](C)C[C@@H](C)S(C)(=O)=O)c2cnc(Nc3ccc4c(n3)C(C)(C)[C@H](C)OC4=O)cc12` (single isomer, unassigned) [Compound 130], the IC50 worked out at 0.22 nM.
